Laboratory results reported in the NIST ThermoML archive (doi:10.1016/j.jct.2012.07.018).
± gives the expanded uncertainty stated by the source.

Columns and labels:
[1] = molar heat capacity at constant pressure; details: Liquid, Flow calorimetry
[2] = molar heat capacity at constant pressure; xn = mol fraction of the nth substance listed; details: 313.15 K, Liquid, Flow calorimetry

C1CCCCC1 [cyclohexane]
molar heat capacity at constant pressure [J/K/mol], [1]
Details	100 kPa	5000 kPa	10000 kPa	15000 kPa	20000 kPa
293.15 K	154.1 ± 1.6	152 ± 1.5	151.1 ± 1.5	149.9 ± 1.5	148.7 ± 1.5
313.15 K	162.7 ± 1.6	160.7 ± 1.6	158.8 ± 1.6	157.3 ± 1.6	155.9 ± 1.6
333.15 K	171 ± 1.7	169.1 ± 1.7	166.8 ± 1.7	164.9 ± 1.7	163.4 ± 1.7

C1CCCCC1 [cyclohexane] + C=CCCCC
[2], x1 = 1
Details	molar heat capacity at constant pressure [J/K/mol]
100 kPa	162.7 ± 1.6
5000 kPa	160.7 ± 1.6
10000 kPa	158.8 ± 1.6
15000 kPa	157.3 ± 1.6
20000 kPa	155.9 ± 1.6

C1CCCCC1 [cyclohexane] + CCO
molar heat capacity at constant pressure [J/K/mol], [2]
Details	x1 = 0.1	x1 = 0.1999	x1 = 0.2999	x1 = 0.4	x1 = 0.5002	x1 = 0.6	x1 = 0.7002	x1 = 0.8	x1 = 0.8999	x1 = 1
100 kPa	127.8 ± 1.3	134.2 ± 1.4	140.2 ± 1.4	146.9 ± 1.5	152.7 ± 1.5	158.2 ± 1.6	163.3 ± 1.7	167.6 ± 1.7	169.9 ± 1.7	162.7 ± 1.6
5000 kPa	126.5 ± 1.3	132.9 ± 1.3	138.8 ± 1.4	145.2 ± 1.5	151 ± 1.5	155.9 ± 1.6	161 ± 1.6	165.2 ± 1.7	167.3 ± 1.7	160.7 ± 1.6
10000 kPa	125 ± 1.3	131 ± 1.3	137.1 ± 1.4	143.1 ± 1.4	149 ± 1.5	154 ± 1.6	159 ± 1.6	163.1 ± 1.6	165.5 ± 1.7	158.8 ± 1.6
15000 kPa	123.7 ± 1.3	130.2 ± 1.3	135.7 ± 1.4	141.3 ± 1.4	147 ± 1.5	152.9 ± 1.5	157.6 ± 1.6	161.3 ± 1.6	163.3 ± 1.7	157.3 ± 1.6
20000 kPa	122.8 ± 1.2	129.5 ± 1.3	134.9 ± 1.4	140.7 ± 1.4	146.6 ± 1.5	149 ± 1.5	156.3 ± 1.6	160.5 ± 1.6	162.5 ± 1.6	155.9 ± 1.6

CCO [ethanol]
[1], 313.15 K
Details	molar heat capacity at constant pressure [J/K/mol]
100 kPa	119.2 ± 1.2
5000 kPa	118 ± 1.2
10000 kPa	116.8 ± 1.2
15000 kPa	115.5 ± 1.2
20000 kPa	114.9 ± 1.2

CCO [ethanol] + C1CCCCC1
[2], x2 = 0
Details	molar heat capacity at constant pressure [J/K/mol]
100 kPa	119.2 ± 1.2
5000 kPa	118 ± 1.2
10000 kPa	116.8 ± 1.2
15000 kPa	115.5 ± 1.2
20000 kPa	114.9 ± 1.2

CCO [ethanol] + C=CCCCC
[2], x2 = 0
Details	molar heat capacity at constant pressure [J/K/mol]
100 kPa	119.2 ± 1.2
5000 kPa	118 ± 1.2
10000 kPa	116.8 ± 1.2
15000 kPa	115.5 ± 1.2
20000 kPa	114.9 ± 1.2

C=CCCCC [hex-1-ene]
molar heat capacity at constant pressure [J/K/mol], [1]
Details	100 kPa	5000 kPa	10000 kPa	15000 kPa	20000 kPa
273.15 K	177.2 ± 1.8	170.8 ± 1.7	168.3 ± 1.7	166.3 ± 1.7	165.3 ± 1.7
293.15 K	184.8 ± 1.9	178.6 ± 1.8	175.1 ± 1.8	172.6 ± 1.7	172.1 ± 1.7
313.15 K	190.7 ± 1.9	186.6 ± 1.9	182.9 ± 1.8	180.4 ± 1.8	178.2 ± 1.8

C=CCCCC [hex-1-ene] + C1CCCCC1
molar heat capacity at constant pressure [J/K/mol], [2]
Details	x2 = 0	x2 = 0.1	x2 = 0.2	x2 = 0.2999	x2 = 0.4001	x2 = 0.5	x2 = 0.6001	x2 = 0.7	x2 = 0.8	x2 = 0.9
100 kPa	190.7 ± 1.9	187.6 ± 1.9	184.3 ± 1.9	181.3 ± 1.8	178 ± 1.8	175.2 ± 1.8	172.5 ± 1.7	169.7 ± 1.7	167.2 ± 1.7	165.1 ± 1.7
5000 kPa	186.6 ± 1.9	181.3 ± 1.8	180.5 ± 1.8	176.8 ± 1.8	174.2 ± 1.8	171.6 ± 1.7	169.6 ± 1.7	167.3 ± 1.7	163.8 ± 1.7	162.2 ± 1.6
10000 kPa	182.9 ± 1.8	179.7 ± 1.8	176.9 ± 1.8	173.9 ± 1.8	172.2 ± 1.7	169.1 ± 1.7	167 ± 1.7	164.9 ± 1.7	162.3 ± 1.6	160 ± 1.6
15000 kPa	180.4 ± 1.8	177.2 ± 1.8	174.8 ± 1.8	171.7 ± 1.7	169.9 ± 1.7	167.6 ± 1.7	165.4 ± 1.7	163.3 ± 1.7	160.2 ± 1.6	158.1 ± 1.6
20000 kPa	178.2 ± 1.8	175.4 ± 1.8	173.5 ± 1.8	170.8 ± 1.7	168.6 ± 1.7	166.2 ± 1.7	163.9 ± 1.7	162.1 ± 1.6	159.6 ± 1.6	157.9 ± 1.6

C=CCCCC [hex-1-ene] + CCO
molar heat capacity at constant pressure [J/K/mol], [2]
Details	x1 = 0.0999	x1 = 0.2	x1 = 0.3	x1 = 0.3998	x1 = 0.4998	x1 = 0.6	x1 = 0.7001	x1 = 0.8003	x1 = 0.9003	x1 = 1
100 kPa	130.7 ± 1.3	142 ± 1.4	152 ± 1.5	161.5 ± 1.6	171.8 ± 1.7	–	186.4 ± 1.9	192.3 ± 1.9	197 ± 2	190.7 ± 1.9
5000 kPa	129 ± 1.3	139.8 ± 1.4	149.7 ± 1.5	158.9 ± 1.6	167.9 ± 1.7	175.4 ± 1.8	182.2 ± 1.8	188.7 ± 1.9	191.2 ± 1.9	186.6 ± 1.9
10000 kPa	127.3 ± 1.3	138 ± 1.4	147.2 ± 1.5	156.2 ± 1.6	165.1 ± 1.7	172.6 ± 1.7	179 ± 1.8	184.7 ± 1.9	188.5 ± 1.9	182.9 ± 1.8
15000 kPa	126 ± 1.3	136.6 ± 1.4	145.7 ± 1.5	153.7 ± 1.6	163.1 ± 1.6	170.2 ± 1.7	176.3 ± 1.8	181.6 ± 1.8	185.1 ± 1.9	180.4 ± 1.8
20000 kPa	125 ± 1.3	135.4 ± 1.4	144.3 ± 1.5	152.9 ± 1.5	161.4 ± 1.6	168.4 ± 1.7	174.7 ± 1.8	178.5 ± 1.8	183.4 ± 1.9	178.2 ± 1.8
